Assay results taken from article PMC11091889, “Silver Organometallics that are Highly Potent Thioredoxin and Glutathione Reductase Inhibitors: Exploring the Correlations of Solution Chemistry with the Strong Antibacterial Effects” (ACS Infectious Diseases, 2024).

Experiments:
[1] = tested on: E. coli (DSM1116, ATCC 9637); experiment: microbe, parasite or virus in culture; format: cell-based, Escherichia coli; details: for MIC E. coli DSM 1116 in MHB + tryptone: Müller-Hinton Broth with tryptone (17 g/L); for MIC E. coli DSM 1116 in MHB + tryptone / MIC E. coli DSM 1116 in MHB + yeast extract / MIC E. coli DSM 1116 in MHB: ± SE; for MIC E. coli DSM 1116 in MHB + yeast extract: Müller-Hinton Broth with yeast extract (3 g/L); for MIC E. coli DSM 1116 in MHB: Müller-Hinton Broth without additive; for EC50 / MIC E. coli: mean ± standard error; for EC50 / MIC E. coli / MIC E. coli (value in brackets): n = 3, MHB; for MIC E. coli / MIC E. coli (value in brackets): 22 h
Summary of the method: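 Escherichia coli DSM1116 (ATCC 9637) was tested by broth microdilution in 96-well plates in duplicate, with compounds serially diluted from 64 to 1 μg/mL. Inocula of 2–8 × 10^5 CFU/mL were used in MHB (21 g/L Müller Hinton broth, pH 7.4), either alone or supplemented with tryptone (17 g/L) or yeast extract (3 g/L). After 22 h at 37 °C, absorbance at 600 nm was read. MIC and EC50 were obtained by curve fitting in Sigma Plot from three independent experiments, and ciprofloxacin served as the positive control.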

[2] = tested on: K. pneumoniae (DSM 11678, ATCC33495); experiment: Broth microdilution antibacterial assay; format: cell-based, Klebsiella pneumoniae; details: n = 3, MHB; for MIC K. pneumoniae / EC50: mean ± standard error; for MIC K. pneumoniae / MIC K. pneumoniae (value in brackets): 22 h; for EC50: read-out: EC50 K. pneumoniae
Summary of the method: (§1)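 Broth microdilution used 2–8 × 10^5 CFU/mL inocula, with compounds serially diluted 64 to 1 μg/mL and incubated 22 h at 37 °C, read at 600 nm. A. baumannii, K. pneumoniae and P. aeruginosa were grown in MHB pH 7.4; E. faecium was grown in TSY pH 7.0–7.2. MIC and EC50 were obtained by curve fitting from three independent experiments.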

[3] = tested on: A. baumannii (DSM 30007, ATCC 19606); experiment: Broth microdilution antibacterial assay; format: cell-based, Acinetobacter baumannii; details: n = 3, MHB; for MIC A. baumannii / EC50: mean ± standard error; for MIC A. baumannii / MIC A. baumannii (value in brackets): 22 h; for EC50: read-out: EC50 A. baumannii
Summary of the method: as §1

[4] = tested on: S. aureus MRSA (DSM 11822, ICB 25701); experiment: microbe, parasite or virus in culture; format: cell-based, methicillin resistant S. aureus; details: n = 3, TSY; for MIC MRSA / EC50: mean ± standard error; for MIC MRSA / MIC MRSA (value in brackets): 22 h; for EC50: read-out: EC50 MRSA
Summary of the method: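 Broth microdilution in TSY (30 g/L trypticase soy broth, 3 g/L yeast extract, pH 7.0–7.2), inoculum 2–8 × 10^5 CFU/mL, compounds serially diluted 64 to 1 μg/mL, 22 h at 37 °C. Growth read as absorbance at 600 nm; MIC and EC50 obtained by curve fitting, three independent experiments.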

[5] = target: T1, glutathione reductase (GR) from E. coli (Escherichia coli, UniProt P06715); experiment: GR inhibition assay (DTNB reduction); format: biochemical; details: ± standard deviation, n = 3, 75 min preincubation
T1 construct: purchased Antibodies online
T1 sequence (P06715 1-450): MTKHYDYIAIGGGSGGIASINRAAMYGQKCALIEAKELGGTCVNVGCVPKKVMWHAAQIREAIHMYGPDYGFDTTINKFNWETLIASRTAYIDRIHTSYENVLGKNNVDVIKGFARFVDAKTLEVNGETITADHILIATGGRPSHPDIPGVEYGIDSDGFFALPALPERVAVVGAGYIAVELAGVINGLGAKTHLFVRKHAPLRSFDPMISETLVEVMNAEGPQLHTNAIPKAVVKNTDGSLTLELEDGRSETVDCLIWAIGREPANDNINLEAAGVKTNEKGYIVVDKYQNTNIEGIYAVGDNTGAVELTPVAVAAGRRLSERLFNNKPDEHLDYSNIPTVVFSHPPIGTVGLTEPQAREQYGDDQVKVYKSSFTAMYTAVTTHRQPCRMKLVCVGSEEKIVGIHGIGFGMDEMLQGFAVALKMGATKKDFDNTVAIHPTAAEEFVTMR
Method: (§2) The inhibition of purified E. coli thioredoxin reductase (TrxR) and glutathione reductase (GR) from both E. coli and baker’s yeast was determined according to a previously applied procedure.[59],[60]
(§3) The TrxR (E. coli) and GR (baker’s yeast and E. coli) inhibition assays were performed according to previously published procedures.[62],[75] The assays are partly based on the procedure developed by Lu et al.[60] and make use of the reduction of 5,5′-dithiobis(2-nitrobenzoic acid) (DTNB). Solutions of E. coli TrxR (35.4 U/mL) and E. coli thioredoxin (Trx) (156 μg/mL) (both purchased from Sigma-Aldrich) or baker’s yeast GR (0,08 U/mL, Sigma-Aldrich) or E. coli GR (4.2 U/ml, Antibodies online) and GSSG (0.28 mM, Sigma-Aldrich) in distilled water were prepared, as were fresh 2 mM stock solutions of the test compounds in DMSO. Then, solutions with several concentrations of the test compounds in DMSO were prepared, and 35 μL of each solution was diluted with 965 μL of TE buffer (Tris–HCl 50 mM, EDTA 1 mM, pH 7.5). These solutions (20 μL) or TE buffer without the test compounds (20 μL, as control) were mixed with the TrxR or GR solutions (10 μL), the Trx or GSSG solutions (10 μL), and a solution of NADPH (200 μM) in TE buffer (100 μL) in a well on a 96-well plate. As a blank solution, 200 μM NADPH in TE buffer (100 μL) mixed with a DMSO/buffer mixture (40 μL) was used (final concentrations of DMSO: 0.5% v/v). The plate was incubated for 75 min at 25 °C with moderate shaking. After incubation, 100 μL of a reaction mixture (TE buffer containing 200 μM NADPH and 5 mM DTNB) was added to each well to initiate the reaction. After thorough mixing, the formation of 5-TNB was monitored by a microplate reader at 405 nm in 35 s intervals (10 measurements). The values were corrected by subtraction of the blank solution absorption values. The increase in the concentration of 5-TNB followed a linear trend (r^2 ≥ 0.990), and the enzymatic activities were calculated as the gradients (increase in absorbance per second) thereof. […] The inhibition is presented as the mean IC50 values and standard deviations obtained in three independent experiments.

[6] = target: E. coli thioredoxin reductase (TrxR) (Escherichia coli, UniProt P0A9P4); details: read-out: IC50 TrxR from E. coli; ± standard deviation, n = 3, 75 min preincubation
Chain of E. coli thioredoxin reductase (TrxR) (P0A9P4 whole entry): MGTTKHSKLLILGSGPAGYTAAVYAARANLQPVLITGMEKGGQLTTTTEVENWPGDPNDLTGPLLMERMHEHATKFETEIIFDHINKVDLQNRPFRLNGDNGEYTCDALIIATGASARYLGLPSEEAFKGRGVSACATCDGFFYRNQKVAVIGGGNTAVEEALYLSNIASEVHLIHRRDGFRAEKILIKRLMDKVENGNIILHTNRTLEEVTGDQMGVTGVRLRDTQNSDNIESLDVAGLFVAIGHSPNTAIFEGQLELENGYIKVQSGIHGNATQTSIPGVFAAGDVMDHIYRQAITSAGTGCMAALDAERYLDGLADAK
Method: as §2, §3

Caco-2 cells = details: read-out: Cytotoxicity IC50 Caco-2; 24 h, almost confluent cell layers, highest concentration 100 μM
Method: Besides the antimicrobial effects, the toxic effects of silver ions have to be considered.[10],[12] As a primary evaluation of the cell toxicity triggered by silver NHC complexes, almost confluent cell layers of CaCo-2 cells were grown and challenged for 24 h with the silver complexes and also with the silver reference compounds AgNO3 and SSD (see Figure 6).
Caco-2 cells were grown as almost confluent monolayers in 96-well plates. The complexes were dissolved in wells of 96-well plates as stock solutions in DMSO (0.2% v/v) diluted with DMEM cell culture medium, which was supplemented with 10% fetal calf serum and 50 mg/L gentamicin. The cell layers were incubated with the drug containing media for 24 h at 37 °C/5% CO2 in an incubator. The cell viability was determined using crystal violet (0.02%) staining and was calculated as percentage of an untreated control. Results were obtained in three independent experiments.

[7] = 25 mM in DMSO, dark, 24 h, visual inspection
Method: Because of the formation of black colloidal silver in the course of degradation, the solution stability of silver NHC complexes can be monitored visually and with the help of nephelometry. All synthesized complexes were dissolved at 25 mM in DMSO and kept in the dark for 24 h.
After the experiment, the DMSO stock solutions of compounds were kept away from direct light at room temperature for 24 h to monitor the stability of solutions.

SMILES	MIC E. coli DSM 1116 in MHB + tryptone [1] [µM]	MIC E. coli DSM 1116 in MHB + yeast extract [1] [µM]	MIC E. coli DSM 1116 in MHB [1] [µM]	EC50 [1] [µM]	MIC E. coli [1] [µM]	MIC E. coli (value in brackets) [1] [µg/mL]	MIC K. pneumoniae [2] [µM]	EC50 [2] [µM]	MIC K. pneumoniae (value in brackets) [2] [µg/mL]	MIC A. baumannii [3] [µM]	EC50 [3] [µM]	MIC A. baumannii (value in brackets) [3] [µg/mL]	MIC MRSA [4] [µM]	EC50 [4] [µM]	MIC MRSA (value in brackets) [4] [µg/mL]	IC50 [5] [µM]	IC50 [6] [µM]	IC50 (Caco-2 cells) [µM]	Solution stability (signs of degradation, precipitation, silver colloid) [7]
CC(C)n1[c](=[Ag][Cl])n(Cc2ccccn2)c2ccccc21 [3a, Chlorido (1-Isopropyl-3-(pyridin-2-ylmethyl)-benzimidazol-2-ylidene) Silver(I)]	162.2 ± 0.0	162.2 ± 0.0	40.5 ± 0.0	35.3 ± 1.1	40.5 ± 0.0	16	13.5 ± 3.4	9.8 ± 2.4	5	13.5 ± 3.4	1.8 ± 0.3	5	162 ± 0.0	88.6 ± 1.6	64	0.032 ± 0.002	0.103 ± 0.008	–	–
CC(C)n1[c](=[Ag][Br])n(Cc2ccccn2)c2ccccc21 [3b, Bromido (1-Isopropyl-3-(pyridin-2-ylmethyl)-benzimidazol-2-ylidene) Silver(I)]	145.7 ± 0.0	121.5 ± 24.3	36.4 ± 0.0	28.7 ± 3.6	36.4 ± 0.0	16	18.2 ± 0.0	8.6 ± 0.2	8	15.2 ± 3.0	0.53 ± 0.14	7	146 ± 0.0	78.8 ± 0.4	64	0.041 ± 0.007	0.092 ± 0.008	–	–
CC(C)n1[c](=[Ag][I])n(Cc2ccccn2)c2ccccc21 [3c, Iodido (1-Isopropyl-3-(pyridin-2-ylmethyl)-benzimidazol-2-ylidene) Silver(I)]	54.9 ± 11.0	43.9 ± 11.0	11.0 ± 2.7	8.8 ± 2.5	11.0 ± 2.7	5	4.11 ± 0.0	2.3 ± 0.3	2	4.11 ± 0.0	1.9 ± 0.1	2	> 132	> 132	> 64	0.039 ± 0.006	0.122 ± 0.015	> 100	did not show clear signs of degradation
COCCn1[c](=[Ag][I])n(Cc2ccccn2)c2ccccc21 [4c, Iodido (1-(2-Methoxyethyl)-3-(pyridin-2-ylmethyl)-benzimidazol-2-ylidene) Silver(I)]	–	–	–	14.4 ± 2.7	21.2 ± 5.3	11	4.0 ± 0.0	2	2	9.3 ± 3.5	1.9 ± 0.1	5	> 128	> 128	> 64	–	–	> 100	did not show clear signs of degradation
